Key:
K-Ras G12D = target: T1, K-Ras G12D (Homo sapiens, UniProt P01116, G12D); assay: PPI-HTRF assay, K-Ras G12D / SOS1 interaction; type: biochemical; conditions: HTRF, K-Ras G12D; read-out: PPI-HTRF-5 nM (K-Ras G12D IC50)
T1 construct: made in house; host or cells: E. coli, e.g. BL21 (DE3)
Method in brief: (§1)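 Equilibrium interaction of GST-tagged human K-Ras (wildtype or G12D/G12V/G12S mutant) with His-tagged hSOS1. Detection uses anti-GST-Eu(K) and anti-6His-XL665 in HEPES pH 7.4 buffer. Signal is read ≥10 min after mixing and the ratiometric HTRF signal is fitted for IC50.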

SW620 cells = assay: Ras cellular assay, cell proliferation SW620; type: cell-based; conditions: Homo sapiens, SW-620
Description: (§2) For example, this assay can be also used to assess selective growth inhibition of a mutant Ras protein relative to a wildtype, or relative to a different mutant Ras protein.

A549 cells = assay: Ras cellular assay, cell proliferation A549; type: cell-based; conditions: Homo sapiens
Experimental: as §2
A549 (ATCC CRL-185) and LS123 (ATCC CRL-255) cell lines comprise a G12S mutation and can be used to assess Ras cellular signaling in vitro, e.g., in response to treatment with a compound described herein. A549 culture medium is prepared with RPMI-1640 and 10% heat-inactivated FBS. LS123 culture medium is prepared with RPMI-1640 and 10% heat-inactivated FBS. A CellTiter-Glo (CTG) luminescent based assay (Promega) is used to assess growth of the cells, as a measurement of the ability of the compounds herein to inhibit Ras signaling in the cells. The cells (e.g., 800 per well) are seeded in their respective culture medium in standard tissue culture-treated 384-well format plates (Falcon #08-772-116) or ultra-low attachment surface 384-well format plates (S-Bio #MS-9384WZ). The day after plating, cells are treated with a dilution series (e.g., a 10 point, 3-fold dilution series) of the compounds herein (e.g., approximately 40 μL final volume per well). Cell viability can be monitored (e.g., approximately 6 days later) according to the manufacturer's recommended instructions, where CellTiter-Glo reagent is added (e.g., approximately 10 μL), vigorously mixed, covered, and placed on a plate shaker (e.g., approximately for 20 min) to ensure sufficient cell lysis prior to assessment of luminescent signal. The IC50 values are determined using the four parameter fit. The resulting IC50 value is a measurement of the ability of the test compound to reduce cell growth of Ras-driven cells (e.g., tumor cell lines) in vitro and/or in vivo.

GP2D cells = assay: Ras cellular assay, cell proliferation GP2D; type: cell-based
Method in brief: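 Growth inhibition read by CellTiter-Glo luminescence roughly 5 days after compound addition, which followed overnight plating of G12D-mutant GP2D cells (e.g., 800 per well). Compounds were tested as a serial dilution (e.g., 9 points, 3-fold), with IC50 fitted by four-parameter model.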

K-Ras G12V = target: T2, K-Ras G12V (Homo sapiens, UniProt P01116, G12V); assay: PPI-HTRF assay, K-Ras G12V / SOS1 interaction; type: biochemical; conditions: HTRF, K-Ras G12V; read-out: PPI-HTRF-5 nM (K-Ras G12V IC50)
T2 construct: made in house; host or cells: E. coli, e.g. BL21 (DE3)
Method in brief: as §1

K-Ras G12S = target: T3, K-Ras G12S (Homo sapiens, UniProt P01116, G12S); assay: PPI-HTRF assay, K-Ras G12S / SOS1 interaction; type: biochemical; conditions: read-out: PPI-HTRF-5 nM (K-Ras G12S IC50)
T3 construct: made in house; host or cells: E. coli, e.g. BL21 (DE3)
Method in brief: as §1

wildtype K-Ras = target: T4, wildtype K-Ras (Homo sapiens, UniProt P01116); assay: PPI-HTRF assay, wildtype K-Ras / SOS1 interaction; type: biochemical; conditions: HTRF, K-Ras wt; read-out: PPI-HTRF-5 nM (K-Ras wt IC50)
T4 construct: made in house; host or cells: E. coli, e.g. BL21 (DE3)
Method in brief: as §1

T1 sequence (P01116 1-188 isoform P01116-2 G12D): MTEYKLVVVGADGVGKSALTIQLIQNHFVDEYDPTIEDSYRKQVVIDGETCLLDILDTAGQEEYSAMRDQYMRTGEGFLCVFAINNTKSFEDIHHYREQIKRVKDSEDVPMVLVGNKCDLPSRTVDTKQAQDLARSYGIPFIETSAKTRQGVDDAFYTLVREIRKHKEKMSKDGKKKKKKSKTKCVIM
T2 sequence (P01116 1-188 isoform P01116-2 G12V): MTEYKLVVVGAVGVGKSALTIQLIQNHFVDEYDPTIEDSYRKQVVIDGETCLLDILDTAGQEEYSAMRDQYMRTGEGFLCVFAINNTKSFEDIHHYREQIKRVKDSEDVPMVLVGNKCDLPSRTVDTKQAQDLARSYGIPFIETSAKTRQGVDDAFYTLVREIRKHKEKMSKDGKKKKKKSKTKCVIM
T3 sequence (P01116 1-188 isoform P01116-2 G12S): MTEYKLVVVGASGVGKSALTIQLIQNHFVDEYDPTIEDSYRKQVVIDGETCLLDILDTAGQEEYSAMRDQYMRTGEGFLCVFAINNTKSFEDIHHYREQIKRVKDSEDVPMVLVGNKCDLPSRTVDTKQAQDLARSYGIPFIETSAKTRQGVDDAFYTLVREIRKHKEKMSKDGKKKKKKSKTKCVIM
T4 sequence (P01116 1-188 isoform P01116-2): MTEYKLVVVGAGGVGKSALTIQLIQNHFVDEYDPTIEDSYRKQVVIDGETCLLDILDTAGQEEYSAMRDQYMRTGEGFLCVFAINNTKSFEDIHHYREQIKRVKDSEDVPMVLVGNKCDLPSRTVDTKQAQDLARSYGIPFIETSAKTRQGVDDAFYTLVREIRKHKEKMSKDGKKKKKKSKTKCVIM

| IC50 (K-Ras G12D) | IC50 (SW620 cells) | IC50 (A549 cells) | IC50 (K-Ras G12V) | IC50 (K-Ras G12S) | IC50 (wildtype K-Ras) | Compound | IC50 (GP2D cells) |
| --- | --- | --- | --- | --- | --- | --- | --- |
| < 5 µM | < 5 µM | < 5 µM | < 5 µM | < 5 µM | < 5 µM | N#Cc1c(N)sc2c(F)ccc(-c3c(Cl)c4c5c(nc(OCC67CCCN6C[C@H](F)C7)nc5c3F)N3CCC[C@H]3CO4)c12 (stereo partly drawn) [compound 159, 2-amino-4-((12aS)-10-chloro-8-fluoro-6-(((2R)-2-fluorotetrahydro-1H-pyrrolizin-7a(5H)-yl)methoxy)-2,3,12,12a-tetrahydro-1H-pyrrolo[2′,1′:3,4][1,4]oxazepino[5,6,7-de]quinazolin-9-yl)-7-fluorobenzo[b]thiophene-3-carbonitrile] | < 5 µM |
| < 5 µM | < 5 µM | < 5 µM | < 5 µM | < 5 µM | < 5 µM | N#Cc1c(N)sc2c(F)ccc(-c3c(Cl)c4c5c(nc(OC[C@@]67CCCN6C[C@H](F)C7)nc5c3F)N3CC(F)(F)C[C@H]3CO4)c12 [compound 181] | < 5 µM |
| < 5 µM | < 5 µM | < 5 µM | < 5 µM | < 5 µM | < 5 µM | N#Cc1c(N)sc2c(F)ccc(-c3c(Cl)c4c5c(nc(OC[C@@]67CCCN6C[C@H](F)C7)nc5c3F)N3CCN(CC(F)F)CCC3CO4)c12 (stereo partly drawn) [compound 170, 2-amino-4-(6-chloro-11-(2,2-difluoroethyl)-4-fluoro-2-(((2R,7aS)-2-fluorotetrahydro-1H-pyrrolizin-7a(5H)-yl)methoxy)-8a,9,10,11,12,13-hexahydro-8H-[1,4]diazepino[7′,1′:3,4][1,4]oxazepino [5,6,7-de]quinazolin-5-yl)-7-fluorobenzo[b]thiophene-3-carbonitrile] | < 5 µM |
| < 5 µM | < 5 µM | < 5 µM | < 5 µM | < 5 µM | < 5 µM | COC1CCC2COc3c(Cl)c(-c4ccc(F)c5sc(N)c(C#N)c45)c(F)c4nc(OC[C@@]56CCCN5C[C@H](F)C6)nc(c34)N2C1 (stereo partly drawn) [compound 182, 2-amino-4-(6-chloro-4-fluoro-2-(((2R,7aS)-2-fluorotetrahydro-1H-pyrrolizin-7a(5H)-yl)methoxy)-11-methoxy-8,8a,9,10,11,12-hexahydropyrido[2′,1′:3,4][1,4]oxazepino [5,6,7-de]quinazolin-5-yl)-7-fluorobenzo[b]thiophene-3-carbonitrile] | < 5 µM |
| < 5 µM | < 5 µM | < 5 µM | < 5 µM | < 5 µM | < 5 µM | N#Cc1c(N)sc2c(F)ccc(-c3c(Cl)c4c5c(nc(OCC67CCCN6C[C@H](F)C7)nc5c3F)N3CCCC[C@H]3CO4)c12 (stereo partly drawn) [compound 168, 2-amino-4-((5aS)-3-chloro-1-fluoro-12-(((2R,7aS)-2-fluorohexahydro-1H-pyrrolizin-7a-yl)methoxy)-5,5a,6,7,8,9-hexahydropyrido[2′,1′:3,4][1,4]oxazepino[5,6,7-de]quinazolin-2-yl)-7-fluorobenzo[b]thiophene-3-carbonitrile] | < 5 µM |

| Compound | IC50 (K-Ras G12D) | IC50 (SW620 cells) | IC50 (A549 cells) | IC50 (K-Ras G12V) | IC50 (K-Ras G12S) | IC50 (wildtype K-Ras) | IC50 (GP2D cells) |
| --- | --- | --- | --- | --- | --- | --- | --- |
| CN1c2nc(OC[C@@]34CCCN3C[C@H](F)C4)nc3c(F)c(-c4ccc(F)c5sc(N)c(C#N)c45)c(Cl)c(c23)OCC2CN(C(=O)[C@H]3CN3)CC21 (stereo partly drawn) [compound 124, 2-amino-4-(10-((R)-aziridine-2-carbonyl)-6-chloro-4-fluoro-2-(((2R,7aS)-2-fluorotetrahydro-1H-pyrrolizin-7a(5H)-yl)methoxy)-12-methyl-8a,9,10,11,11a,12-hexahydro-8H-pyrrolo[3′,4′:6,7][1,5]oxazocino[4,3,2-de]quinazolin-5-yl)-7-fluorobenzo[b]thiophene-3-carbonitrile] | < 5 µM | < 5 µM | > 5 µM | < 5 µM | < 5 µM | < 5 µM | < 5 µM |

From patent publication US12059425B2, “Heterocyclic compounds and uses thereof” (Kumquat Biosciences Inc., priority 2022, dated 2024)
